# Source: US11197859B2 (AUTIFONY THERAPEUTICS LIMITED, priority 2010, dated 2021)
# “Also recorded” adds a separate entry of the source.
# What was measured:
# Male CD-1 mice = experiment: Psychostimulant (amphetamine)-induced hyperactivity in mice; settings: AMPH 2 mg/kg i.p. + clozapine 3 mg/kg i.p. 30 min before; over 60 min; mean ± sem; p<0.01 vs amphetamine alone
# Male CD rats = experiment: Electroshock seizure model in rats; format: in vivo, rat; settings: 300 mg/kg p.o., 1 hour before test; positive control
# Procedure: Male CD rats (85-130 g) were supplied by Charles River, Italy.
# Testing involved determining the threshold for tonic hindlimb extensor seizures using a Hugo Sachs Electronik stimulator which delivers a constant current of 0.3 second duration, 50 Hz, sinewave form, fully adjustable between 1 and 300 mA. Stimuli were delivered via corneal electrodes (Stean T O, Atkins A R, Heidbreder C A, Quinn L P, Trail B K, Upton N. (2005) Br J Pharmacol. 144(5):628-35). Seizure threshold was determined using the ‘up and down’ method of Kimball et al. (1957)(Kimball A W, Burnett W T Jr, Doherty D G. (1957) Radiat Res. 7(1):1-12). The first animal tested in each group was stimulated with a current that might be expected to be close to the threshold for induction of a seizure. If a tonic seizure was not induced, then the next animal in the group received a stimulus 5 mA higher. If a tonic seizure was induced, then the next animal received a stimulus 5 mA lower. This is repeated for all animals within the control (vehicle) group. In the case of groups treated with a test compound steps of 5 to 10 mA were used. At the end of the study, blood samples were taken for analysis of the drug concentrations in this compartment (n=4/group).
# All doses were calculated as base. Sodium valproate was suspended in Methocell 1% (w/v) and dosed via the oral (p.o.) route at 5 mL/kg 1 hour before test. Reference Example RE1 was dissolved in DMSO and then suspended in Methocell 1% (w/v) to a final DMSO concentration of 5% (v/v). Reference Example RE1 was then dosed p.o. at 5 mL/kg 2 hours before test.
# Induction of seizure is measured as an all-or-nothing effect scored as either present (+) or absent (0) for each animal. […] Drug effects were calculated as the % change in CC50. Significant differences between drug-treated animals and appropriate vehicle treated groups were assessed according to the methods of Litchfield and Wilcoxon (1949).
# [1] = molecular target: T1, human Kv3.2 channels (hKv3.2) (Homo sapiens, UniProt Q96PR1); experiment: IonWorks Quattro electrophysiology, hKv3.2 currents, activation time constant (Tauact); format: cell-based; settings: hKv3.2, -15 mV pulse
# T1 construct: expressed in transfected cells
# T1 sequence (Q96PR1 1-638): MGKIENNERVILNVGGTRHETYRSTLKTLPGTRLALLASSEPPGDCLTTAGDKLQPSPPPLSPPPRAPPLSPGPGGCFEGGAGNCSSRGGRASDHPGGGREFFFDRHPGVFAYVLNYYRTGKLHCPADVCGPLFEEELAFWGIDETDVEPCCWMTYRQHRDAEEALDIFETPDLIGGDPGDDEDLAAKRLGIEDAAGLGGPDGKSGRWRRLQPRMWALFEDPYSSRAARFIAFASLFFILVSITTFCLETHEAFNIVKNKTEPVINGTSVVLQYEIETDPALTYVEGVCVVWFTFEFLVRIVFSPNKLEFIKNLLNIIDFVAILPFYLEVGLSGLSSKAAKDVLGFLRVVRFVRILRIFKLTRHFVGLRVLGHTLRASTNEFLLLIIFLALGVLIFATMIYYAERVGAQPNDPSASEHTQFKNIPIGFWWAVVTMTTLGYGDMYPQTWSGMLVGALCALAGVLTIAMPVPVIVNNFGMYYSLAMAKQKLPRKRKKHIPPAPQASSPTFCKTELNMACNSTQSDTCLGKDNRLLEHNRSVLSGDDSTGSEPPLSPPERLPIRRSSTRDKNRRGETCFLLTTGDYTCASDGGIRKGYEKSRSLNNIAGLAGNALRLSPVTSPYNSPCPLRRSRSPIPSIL
# Procedure: The ability of the compounds of the disclosure to modulate the voltage-gated potassium channel subtypes Kv3.2/3.1 may be determined using the following assay.
# To assess compound effects on human Kv3.2 channels (hKv3.2), a stable cell line expressing hKv3.2 was created by transfecting Chinese Hamster Ovary (CHO)-K1 cells with a pCIH5-hKv3.2 vector. Cells were cultured in DMEM/F12 medium supplemented by 10% Foetal Bovine Serum, 1× non-essential amino acids (Invitrogen) and 500 ug/ml of Hygromycin-B (Invitrogen). Cells were grown and maintained at 37° C. in a humidified environment containing 5% CO2 in air.
# The day of the experiment, cells were removed from the incubator and the culture medium removed. Cells were washed with 5 ml of Dulbecco's PBS (DPBS) calcium and magnesium free and detached by the addition of 3 ml Versene (Invitrogen, Italy) followed by a brief incubation at 37° C. for 5 minutes. The flask was tapped to dislodge cells and 10 ml of DPBS containing calcium and magnesium was added to prepare a cell suspension. The cell suspension was then placed into a 15 ml centrifuge tube and centrifuged for 2 min at 1200 rpm. After centrifugation, the supernatant was removed and the cell pellet re-suspended in 4 ml of DPBS containing calcium and magnesium using a 5 ml pipette to break up the pellet. Cell suspension volume was then corrected to give a cell concentration for the assay of approximately 3 million cells per ml.
# Experiments were conducted at room temperature using IonWorks Quattro™ planar array electrophysiology technology (Molecular Devices Corp.) with PatchPlate™ PPC. Stimulation protocols and data acquisition were carried out using a microcomputer (Dell Pentium 4). Planar electrode hole resistances(Rp) were determined by applying a 10 mV voltage step across each well. These measurements were performed before cell addition. […] Following this, amphotericin-B solution was added to the intracellular face of the electrode to achieve intracellular access. Cells were held at −70 mV. Leak subtraction was conducted in all experiments by applying 50 ms hyperpolarizing (10 mV) prepulses to evoke leak currents followed by a 20 ms period at the holding potential before test pulses. From the holding potential of −70 mV, a first test pulse to −15 mV was applied for 100 ms and following a further 100 ms at −70 mV, a second pulse to 40 mV was applied for 50 ms. Cells were then maintained for a further 100 ms at −100 mV and then a voltage ramp from −100 mV to 40 mV was applied over 200 ms. In all experiments, the test pulses protocol was performed in the absence (pre-read) and presence (post-read) of the test compound. Pre- and post-reads were separated by the compound addition followed by a 3 minute incubation.
# The intracellular solution contained the following (in mM): K-gluconate 100, KCl 54, MgCl2 3.2, HEPES 5, adjusted to pH 7.3 with KOH. Amphotericin-B solution was prepared as 50 mg/ml stock solution in DMSO and diluted to a final working concentration of 0.1 mg/ml in intracellular solution.
# The final assay dilution was 200 and the final compound concentrations were in the range 50 μM to 50 nM.
# The recordings were analysed and filtered using both seal resistance (>20 MΩ) and peak current amplitude (>500 pA at the voltage step of 40 mV) in the absence of compound to eliminate unsuitable cells from further analysis. Kv3 channel-mediated outward currents were measured determined from the mean amplitude of the current over the final 10 ms of the −15 mV voltage pulse minus the mean baseline current at −70 mV over a 10 ms period just prior to the −15 mV step. This Kv3 channel currents following addition of the test compound were then compared with the currents recorded prior to compound addition. […] The normalised data were analysed using ActivityBase or Excel software.
# [2] = system: common marmosets (Callithrix jacchus); experiment: Pharmaco-electroencephalography (phEEG) in the common marmoset; format: in vivo
# Procedure: Laboratory bred male (vasectomised) and female common marmosets (Callithrix jacchus) over 2 years of age, weighing 250-500 g were used in this study. The animals were caged in couples, in a housing room maintained at 25±1° C., 60% humidity and a 12 hour light/dark cycle (lights on at 0600, with 30 min simulated dawn and twilight). Animals received a standard diet and drinking water ad libitum. Only one animal of each pair was involved in the test, which was carried out with the animal situated in the home cage.
# The effect of compounds of the disclosure was assessed using telemetric recording of cortical EEG (ECoG). A multichannel telemetric transmitter (DSI model TL11M2-F40-EET) is implanted intraperitoneally using standard surgical techniques in anaesthetised marmosets. Recording electrodes were permanently fixed, with dental cement, to the skull directly in contact with the dura mater through two drilled holes in the fronto-parietal region. Following surgery, animals were housed in pairs (one implanted, one unoperated partner) in their home cage with access to food and water ad libitum. […] All in vivo studies were conducted in accordance with the Italian laws and conformed to GlaxoSmithkline ethical standards.
# The animals were placed in the nest-boxes in their room cages and EEG traces were recorded using Dataquest ART software for a 5-min period for each time-point and analyzed using Spike2 software (CED, UK). The spectral power in each frequency band was determined for each 2 sec epoch during the pre-treatment period and averaged; similarly spectral power in each band was determined for successive 2 sec epochs of each 5-min period of recording following vehicle or drug treatment. Change in the absolute spectral power, for each of the different bands (delta, theta, alpha and beta) was calculated offline.
# Drug treatments were assigned according to a complete crossover design: All treatments were randomly distributed between animals, in separate experimental sessions, each animal received vehicle and each dose of drug, after an appropriate wash-out period.
# Six animals were treated orally with Reference Example RE2 at the doses of 0.3, 1 and 3 mg/kg (1 ml/kg) and the EEG traces were recorded at +15, 30, 60, 90, 120 and 180 minutes following treatment. Reference Example RE2 was suspended in 12.5% (w/v) aqueous captisol containing 0.1% (w/v) Tween80 and 0.5% (w/v) HPMC.
# Four different frequency bands were considered: delta (1.50-6.00 Hz), theta (6.00-8.00 Hz), alpha (8.00-12.00 Hz) and beta (12.00-30.00 Hz). Values for spectral power in each band at each time point were first log transformed and then analysed with a mixed effect model with time as fixed effect, the baseline level as covariate, and animal as random term. Data are summarised as mean of the percentage changes from baseline and standard error.
# [3] = system: "fast-firing" interneurons in the somatosensory cortex; experiment: Recordings from fast-firing interneurons, spike probability on trains of depolarising pulses; format: cell-based, mouse; settings: 1 microM, n=6; trains at 100, 200, 300 Hz; effect at 300 Hz, p<0.05
# Description: Kv3.1 and Kv3.2 channels must activate and deactivate very rapidly in order to allow neurons to fire actions potentials at high frequency (Rudy and McBain, 2001, Trends in Neurosciences 24, 517-526). Slowing of activation is likely to delay the onset of action potential repolarisation; slowing of deactivation could lead to hyperpolarising currents that reduce the excitability of the neuron and delay the time before the neuron can fire a further action potential. Together these slowing effects on channel activation and deactivation are likely to lead to a reduction rather than a facilitation of the neurons ability to fire at high frequencies. Thus compounds that have this slowing effect on the Kv3.1 and/or Kv3.2 channels may slow neuronal firing.
# The neurons are induced to fire at high frequencies by trains of high frequency depolarising current pulses at 100, 200, and 300 Hz. The ability of the neuron to fire an action potential on each pulse is determined. […] In the absence of drug (closed circles, n=9), the neurons maintained a spike probability of 1 up to 300 Hz.
smiles,measurement,setting,value
"CN1CCN(C2=Nc3cc(Cl)ccc3Nc3ccccc32)CC1 [Clozapine, reference compound]",Total Distance Travelled (cm),Male CD-1 mice,932 ± 362 cm
"CCCC(CCC)C(=O)[O-].[Na+] [sodium valproate, Sodium valproate, reference compound]",increase in seizure threshold (% change in CC50),Male CD rats,258%
"CC[C@@]1(C)NC(=O)N(c2ccc(Oc3ccc(C)c(OC)c3)nc2)C1=O [RE2, (5R)-5-ethyl-5-methyl-3-(6-{[4-methyl-3-(methyloxy)phenyl]oxy}-3-pyridinyl)-2,4-imidazolidinedione]",Tauact mean,[1]; compound 12.5 μM (concentration giving ~0.3 nA current),7.3 ms
same,absolute EEG power in the beta band,"[2]; 1 mg/kg oral, at 30 minutes (concomitant), vs vehicle, p<0.05",significant reduction
same,absolute EEG power in delta band,"[2]; 1 mg/kg oral, at 30 minutes, vs vehicle, p<0.10",marginally significant (p<0.10) increase
same,EEG theta band power,"[2]; 3 mg/kg oral, at 60 minutes, vs vehicle, p<0.05",statistically significant increase
same,absolute EEG power in the delta band,"[2]; 3 mg/kg oral, between 30 and 120 minutes, vs vehicle, p<0.05",statistically significant increase
same,EEG power in the alpha band,"[2]; any dose (0.3, 1, 3 mg/kg oral)",No significant effects
"CC[C@H]1NC(=O)N(c2ccc(Oc3cccc4c3C3(CC3)CO4)nc2)C1=O [Example 15, (5R)-5-ethyl-3-[6-(spiro[1-benzofuran-3,1′-cyclopropan]-4-yloxy)-3-pyridinyl]-2,4-imidazolidinedione]",Tauact mean,[1]; compound 0.2 μM (concentration giving ~0.3 nA current),50.1 ms
same,ability of neurons to fire (spike probability) on trains of depolarising pulses,[3],reduces the ability of the neurons to fire; also recorded: unable to follow trains at the highest frequency
